Reference: publication PMC7143549, “Anticancer Activities of Meroterpenoids Isolated from the Brown Alga Cystoseira usneoides against the Human Colon Cancer Cells HT-29” (Foods, 2020)

Experiments:
[1] = system: HT-29 cells; test: Wound migration assay; assay type: cell-based, human; conditions: 24 h, wound-healing; for inhibition at 10 µg/mL: Homo sapiens, HT-29, read-out: inhibition of cell migration
Protocol: For cell migration assay, HT-29 cells were seeded in six-well culture plates and allowed to grow to 80%–90% confluence for the experiment. After aspirating the medium, similar sized wounds were performed in the monolayer cells using a sterile micropipette tip. Wounded monolayer cells were washed three times with PBS to remove cell debris and then replaced with complete McCoy’s medium. HT-29 cells were treated with the AMTs (10 µg/mL for compounds 1, 2, 5, 6, 7, and 8, and 30 µg/mL for compounds 3 and 4) and incubated for 24h. For the image analysis of the effect of each treatment on cell migration, the wounded area was photographed immediately after scratching and after 24 h. The level of cell migration was determined using NIH Image software (Image J 1.44g, Wayne Rasband, USA) and then expressed as a percentage of wound closure area using the equation: Migration rate (%) = [(wound area at 0 h − wound area at 24 h)/wound area at 0 h] × 100%.

[2] = system: p-AKT in HT-29 cells; test: Western blot of phosphorylated AKT; assay type: cell-based, human; conditions: 24 h; 10 and 20 μg/mL for 1, 2, 5, 6, 7, 8; 30 and 60 μg/mL for 3 and 4
Protocol: (§1) Cells were cultured to 80% confluence at 37 °C. After 24 h of treatment with the compounds (10 and 20 µg/mL for compounds 1, 2, 5, 6, 7, and 8, and 30 and 60 µg/mL for compounds 3 and 4), HT-29 cells were rinsed twice with ice-cold PBS, and then lysed immediately in lysis buffer (250 mM NaCl, 50 mM Tris (pH 7.5), 0.5 mM EDTA, 5 mM EGTA, 8 mM MgCl2, 1 mM PMSF, 0.01 mg/mL pepstatin A, 0.01 mg/mL leupeptin, 0.01 mg/mL aprotinin, 1% Triton X-100). After centrifugation at 12,000 g for 3 min at 4°C to separate the cellular debris, the supernatant was collected and stored at −80°C until use. The protein concentrations were determined using Bio-Rad Protein Assay (BioRad, Richmond, CA, USA), according to the manufacturer’s instructions.
(§2) Equal protein content (50 μg) samples of cell lysates were separated on 10% SDS–polyacrylamide gel and transferred to polyvinylidene difluoride membranes (Hybond-P, Amershan Biosciences, Little Chalfont, UK). The membranes were blocked with 5% (w/v) non-fat dry milk in Tris-buffered saline containing 0.1% Tween-20 buffer (pH 7.4) (TBST) for 1 h at room temperature and incubated with agitation with specific antibodies: anti-pERK1/2 (Cell Signaling; 1:1000), anti-pJNK (Cell Signaling; 1:1000), anti-pAKT (Cell Signaling; 1:1000), anti-β-actin (Sigma-Aldrich; 1:500). Membranes were incubated overnight at 4°C with gentle shaking. The secondary antibody was a peroxidase-conjugated goat anti-mouse or -rabbit antibody (1:10,000; DakoCytomation, Carpinteria, CA, USA). After washing the membrane three times in TBST buffer (10 min), the signals were detected using an enhanced chemiluminescence light-detecting kit (Super-Signal West Pico Chemiluminescent Substrate, Pierce, IL, USA), according to the manufacturer’s instructions and exposed to an X-ray film (GE Healthcare Ltd., Amersham, UK). The protein band densities were analyzed and quantified with a Scientific Imaging Systems (Biophotonics ImageJ Analysis Software, National Institute of Mental Health, Bethesda, MD, USA). β-actin was used to confirm the equal loading and transfer of proteins.

[3] = system: HT-29 colon cancer cells; test: Annexin V-FITC/PI flow cytometry apoptosis induction assay; assay type: cell-based, human; conditions: 24 h; for necrosis (dead cells): 30 μg/mL
Protocol: Quantitative assessment of apoptosis was performed by flow cytometry using an Annexin V-FITC Apoptosis Detection Kit. Briefly, 1 × 10^6 HT-29 cells were seeded per well in six-well plates and incubated for 24 h, followed by the addition of the AMTs dissolved in DMSO (final concentrations of 10, 20, and 30 µg/mL for compounds 1, 2, 5, 6, 7, and 8, and 30, 60, and 90 µg/mL for compounds 3 and 4, and less than 0.05% DMSO) and incubation for 24 h. Curcumin (final concentrations of 50 and 75 μM) was used as positive control. The cells were then washed, harvested with trypsin, and centrifuged at 1500 rpm (5 min, 25 °C). The pellet was resuspended in 195 µL of 1 × Annexin buffer and then stained with 5 μL of Annexin V-FITC and 10 μL of PI for 10 min at room temperature, in the dark. To this mixture 200 μL of 1 × Annexin buffer was added before analysis using a Cytomics FC500 flow cytometer (Beckman Coulter, Indianapolis, IN, USA). Following a gating strategy, flow cytometry plots of size (FS) and complexity (SS) of the HT-29 cells were previously established for the elaboration of a measurement protocol. The normal healthy cells, early apoptosis, late apoptosis, and necrotic populations were represented by annexin V-negative/PI-negative population, annexin V-positive/PI-negative, annexin V-positive/PI-positive and annexin-negative/PI-positive cells, respectively. A total of 10,000 cellular events in each sample were analyzed using DML program.

[4] = system: HT-29 cells; test: Cultrex 96 well BME cell invasion assay; assay type: cell-based; conditions: Homo sapiens, 24 h; for inhibition at 10 µg/mL: 10 μg/mL
Protocol: The invasion activities were measured using Trevigen’s Cultrex® 96 Well Cell Invasion Assays, as previously described. Briefly, about 50 μL of 1X basement membrane extract (BME) in coat buffer was added to each well. After incubation for 4 h at 37 °C in a 5% CO2 atmosphere, the HT-29 cells at 50,000 cells/50μL in serum free McCoy’s medium were added per well to the top chamber containing the tested compound (10 µg/mL for 1, 2, 5, 6, 7, and 8, and 30 µg/mL for compounds 3 and 4). About 150 μL of McCoy’s medium was then added to the lower chamber containing 10% FBS and penicillin/streptomycin as chemoattractants. Cells were allowed to migrate to the lower chamber in a humidified atmosphere containing 5% CO2 at 37 °C for 24 h. Afterwards, top and bottom chambers were aspirated and washed with washing buffer supplemented with the kit. About 100 μL of Cell Dissociation Solution/Calcein-AM was added to each bottom chamber well and incubated for 1 h at 37 °C in CO2 incubator. The cells internalized calcein-AM and the intracellular esterases cleaved the AM moiety to generate free calcein. Fluorescence of the samples was determined at 485 nm excitation, 520 nm emission, using ELISA plate reader (BioTek Instruments, Winooski, VT, USA). The number of cells that had invaded through the BME coat was calculated using a standard curve. Results were expressed as percentage of invasion (%) compared to the control.

[5] = system: p-JNK in HT-29 cells; test: Western blot of phosphorylated JNK; assay type: cell-based, human; conditions: 24 h; 10 and 20 μg/mL for 1, 2, 5, 6, 7, 8; 30 and 60 μg/mL for 3 and 4
Protocol: as §1, §2

COc1c(C)cc(O)cc1C/C=C(\C)CC(=O)/C=C(/C)CCCC(C)(O)C(=O)/C=C/C(C)(C)O (centres unmarked) [Compound 1, usneoidone Z]
inhibition at 10 µg/mL ([1]; 10 μg/mL): 28.4%
expression of p-AKT protein vs control [2]: significantly downregulated
necrosis (dead cells) [3]: 31.22%
inhibition at 10 µg/mL [4]: > 40%

COc1c(C)cc(O)cc1C/C=C(\C)CC(=O)/C=C(\C)CCCC(C)(O)C(=O)/C=C/C(C)(C)O (centres unmarked) [Compound 2, 11-hydroxy-1′-O-methylamentadione]
phospho-JNK level vs control [5]: decreased phosphorylation
inhibition of cell migration ([1]; 10 μg/mL): no significant effects
expression of p-AKT protein vs control [2]: significantly downregulated
early apoptotic cells ([3]; 30 μg/mL (Figure 3B)): 1.94%
late apoptotic cells ([3]; 30 μg/mL (Figure 3B)): 12.94%
viability at 30 µg/mL ([3]; Homo sapiens, HT-29, 30 μg/mL (Figure 3B), read-out: viable cells): 57.7%

COc1c(C)cc(O)cc1C/C=C(\C)CC(=O)/C=C(\C)CCCC(C)=O [Compound 3, cystomexicone B]
phospho-JNK level vs control [5]: decreased phosphorylation
inhibition of cell migration ([1]; 30 μg/mL (methods, Figure 5B)): no significant effects
expression of p-AKT protein vs control [2]: significantly downregulated
early apoptotic cells (Annexin V+PI-) ([3]; 90 μg/mL): 4.47%
late apoptotic cells (Annexin V+PI+) ([3]; 90 μg/mL): 52.12%
total percentage of apoptotic cells ([3]; 90 μg/mL): 56.6%
inhibition at 30 µg/mL ([4]; 30 μg/mL (methods, Figure 5C)): > 40%

COc1c(C)cc(O)cc1/C=C/C(C)(O)CC(=O)/C=C(/C)CCCC(C)C(=O)/C=C/C(C)(C)O (centres unmarked) [Compound 7, cystodione A]
phospho-JNK level vs control [5]: decreased phosphorylation
inhibition at 10 µg/mL ([1]; 10 μg/mL): 30.7%
expression of p-AKT protein vs control [2]: significantly downregulated
induction of apoptosis or death of HT-29 cells ([3]; 4 tested at 30-90 μg/mL, 7 at 10-30 μg/mL): did not induce neither apoptosis nor death

COc1c(C)cc(O)cc1/C=C/C(C)(O)CC(=O)/C=C(\C)CCCC(C)C(=O)/C=C/C(C)(C)O (centres unmarked) [Compound 8, cystodione B]
phospho-JNK level vs control [5]: decreased phosphorylation
inhibition at 10 µg/mL ([1]; 10 μg/mL): 59.1%
expression of p-AKT protein vs control [2]: significantly downregulated
necrosis (dead cells) [3]: 20.12%
inhibition at 10 µg/mL [4]: > 40%
